Like-named read-outs stand apart in the source and are kept apart here.
Assays:
[1] = tested on: E. faecium CL 4931 (VanA); experiment: microbe, parasite or virus in culture; format: cell-based; design: CL4931 (in vitro testing): unit not given here; conditions: for CL4931 (in vitro testing): Tables 7 and 8, unit not given; for MIC, CL4931: E. faecium CL 4931 (VanA)
How it was run: (§1)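 NCCLS M7-A4-based broth microdilution with twofold serial dilutions, incubated at 35° C; medium BHI for enterococci and VISA/MRSA, cation-adjusted Mueller-Hinton for E. coli. Inoculum about 1-5×10^6 CFU/ml (enterococci) or 3-7×10^5 CFU/ml (others); MIC is lowest concentration with no visible growth, read at 18-20 hr for E. coli, 22-24 hr otherwise.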

[2] = tested on: E. faecium CL 5053 (VanA); experiment: microbe, parasite or virus in culture; format: cell-based; design: CL5053 (in vitro testing): unit not given here; conditions: for CL5053 (in vitro testing): Tables 7 and 8, unit not given; for MIC, CL5053: E. faecium CL 5053 (VanA)
How it was run: as §1

[3] = tested on: E. faecium CL 5242 (VanA); experiment: microbe, parasite or virus in culture; format: cell-based; design: CL5242 (in vitro testing): unit not given here; conditions: for CL5242 (in vitro testing): Tables 7 and 8, unit not given; for MIC, CL5242: E. faecium CL 5242 (VanA)
How it was run: as §1

[4] = tested on: E. faecalis CL 4877 (VanB); experiment: microbe, parasite or virus in culture; format: cell-based; design: CL4877 (in vitro testing): unit not given here; conditions: for CL4877 (in vitro testing): Tables 7 and 8, unit not given; for MIC, CL4877: E. faecalis CL 4877 (VanB)
How it was run: as §1

[5] = tested on: CL 4931, CL 5053, CL 5242 and CL 4877; format: cell-based, E. faecium, E. faecalis; design: unit not given here
How it was run: as §1

[6] = mean of CL4931, CL5053, CL5242, CL4877, unit not given

Row | Molecule | CL4931 (in vitro testing) [1] | CL5053 (in vitro testing) [2] | CL5242 (in vitro testing) [3] | CL4877 (in vitro testing) [4] | Mean [5, 6] | MIC, CL4931 ([1]; Table 9) | MIC, CL4931 ([1]; Table 10) | MIC, CL5053 ([2]; Table 9) | MIC, CL5053 ([2]; Table 10) | MIC, CL5242 ([3]; Table 9) | MIC, CL5242 ([3]; Table 10) | MIC, CL4877 ([4]; Table 9) | MIC, CL4877 ([4]; Table 10) | Mean ([5]; Table 9, mean MIC over CL4931, CL5053, CL5242, CL4877) | Mean ([5]; Table 10, mean MIC over CL4931, CL5053, CL5242, CL4877)
1 | CNC(CC(C)C)C(=O)NC1C(=O)NC(CC(N)=O)C(=O)NC2C(=O)NC3C(=O)NC(C(=O)NC(C(=O)O)c4cc(O)cc(O)c4-c4cc3ccc4O)C(O)c3ccc(c(Cl)c3)Oc3cc2cc(c3OC2OC(CN)C(O)C(O)C2OC2CC(C)(NCc3ccc(OCc4ccccc4C(F)(F)F)cc3)C(O)C(C)O2)Oc2ccc(cc2Cl)C1O (centres unmarked) [Compound 180] | 16 | 16 | 2 | 16 | 12.5 | – | – | – | – | – | – | – | – | – | –
2 | CNC(CC(C)C)C(=O)NC1C(=O)NC(CC(N)=O)C(=O)NC2C(=O)NC3C(=O)NC(C(=O)NC(C(=O)O)c4cc(O)cc(O)c4-c4cc3ccc4O)C(O)c3ccc(c(Cl)c3)Oc3cc2cc(c3OC2OC(CNCc3ccccc3Cl)C(O)C(O)C2OC2CC(C)(NCc3ccc(OCc4ccc(Cl)c(Cl)c4)cc3)C(O)C(C)O2)Oc2ccc(cc2Cl)C1O (centres unmarked) [Compound 153] | 8 | 16 | 4 | 0.12 | 7.0 | – | – | – | – | – | – | – | – | – | –
3 | CNC(CC(C)C)C(=O)NC1C(=O)NC(CC(N)=O)C(=O)NC2C(=O)NC3C(=O)NC(C(=O)NC(C(=O)O)c4cc(O)cc(O)c4-c4cc3ccc4O)C(O)c3ccc(c(Cl)c3)Oc3cc2cc(c3OC2OC(CN)C(O)C(O)C2OC2CC(C)(NCc3ccc(OCc4ccc(F)cc4Cl)cc3)C(O)C(C)O2)Oc2ccc(cc2Cl)C1O (centres unmarked) [Compound 181] | 16 | 32 | 4 | 32 | 21 | – | – | – | – | – | – | – | – | – | –
4 | CCCNCC1OC(Oc2c3cc4cc2Oc2ccc(cc2Cl)C(O)C2NC(=O)C(NC(=O)C4NC(=O)C(CC(N)=O)NC(=O)C(NC(=O)C(CC(C)C)NC)C(O)c4ccc(c(Cl)c4)O3)c3ccc(O)c(c3)-c3c(O)cc(O)cc3C(C(=O)O)NC2=O)C(OC2CC(C)(NCc3ccc(OCc4ccc(Cl)c(Cl)c4)cc3)C(O)C(C)O2)C(O)C1O (centres unmarked) [Compound 148] | 8 | 8 | 1 | 1 | 4.5 | – | – | – | – | – | – | – | – | – | –
5 | CNC(CC(C)C)C(=O)NC1C(=O)NC(CC(N)=O)C(=O)NC2C(=O)NC3C(=O)NC(C(=O)NC(C(=O)O)c4cc(O)cc(O)c4-c4cc3ccc4O)C(O)c3ccc(c(Cl)c3)Oc3cc2cc(c3OC2OC(CN)C(O)C(O)C2OC2CC(C)(NCc3ccc(OCc4ccc([N+](=O)[O-])cc4)cc3)C(O)C(C)O2)Oc2ccc(cc2Cl)C1O (centres unmarked) [Compound 178] | 32 | >32 | 8 | >32 | 27 | – | – | – | – | – | – | – | – | – | –
6 | CNC(CC(C)C)C(=O)NC1C(=O)NC(CC(N)=O)C(=O)NC2C(=O)NC3C(=O)NC(C(=O)NC(C(=O)O)c4cc(O)cc(O)c4-c4cc3ccc4O)C(O)c3ccc(c(Cl)c3)Oc3cc2cc(c3OC2OC(CNCc3ccccc3)C(O)C(O)C2OC2CC(C)(NCc3ccc(OCc4ccc(Cl)c(Cl)c4)cc3)C(O)C(C)O2)Oc2ccc(cc2Cl)C1O (centres unmarked) [Compound 134] | 2 | 4 | 1 | 0.25 | 1.8 | – | – | – | – | – | – | – | – | – | –
7 | CNC(CC(C)C)C(=O)NC1C(=O)NC(CC(N)=O)C(=O)NC2C(=O)NC3C(=O)NC(C(=O)NC(C(=O)O)c4cc(O)cc(O)c4-c4cc3ccc4O)C(O)c3ccc(c(Cl)c3)Oc3cc2cc(c3OC2OC(CN)C(O)C(O)C2OC2CC(C)(NCc3ccc(OCc4c(Cl)cccc4Cl)cc3)C(O)C(C)O2)Oc2ccc(cc2Cl)C1O (centres unmarked) [Compound 176] | 16 | 16 | 4 | >16 | 13 | – | – | – | – | – | – | – | – | – | –
8 | teicoplanin [reference compound] | 256 | >1024 | 256 | 0.5 | 170.8 | 256 µg/mL | 256 µg/mL | > 1020 µg/mL | > 1020 µg/mL | 256 µg/mL | 256 µg/mL | 0.5 µg/mL | 16 µg/mL | 128.1 | 256.0
9 | CNC(CC(C)C)C(=O)NC1C(=O)NC(CC(N)=O)C(=O)NC2C(=O)NC3C(=O)NC(C(=O)NC(C(=O)O)c4cc(O)cc(O)c4-c4cc3ccc4O)C(O)c3ccc(c(Cl)c3)Oc3cc2cc(c3OC2OC(CN)C(O)C(O)C2OC2CC(C)(NCc3ccc(OCc4cc(Cl)cc(Cl)c4)cc3)C(O)C(C)O2)Oc2ccc(cc2Cl)C1O (centres unmarked) [Compound 175] | 4 | 4 | 2 | 2 | 3 | – | – | – | – | – | – | – | – | – | –
10 | CNC(CC(C)C)C(=O)NC1C(=O)NC(CC(N)=O)C(=O)NC2C(=O)NC3C(=O)NC(C(=O)NC(C(=O)O)c4cc(O)cc(O)c4-c4cc3ccc4O)C(O)c3ccc(c(Cl)c3)Oc3cc2cc(c3OC2OC(CN3CCNCC3)C(O)C(O)C2OC2CC(C)(NCc3ccc(OCc4ccc(Cl)c(Cl)c4)cc3)C(O)C(C)O2)Oc2ccc(cc2Cl)C1O (centres unmarked) [Compound 167] | 8 | 16 | 4 | 32 | 15.0 | – | – | – | – | – | – | – | – | – | –
11 | CNC(CC(C)C)C(=O)NC1C(=O)NC(CC(N)=O)C(=O)NC2C(=O)NC3C(=O)NC(C(=O)NC(C(=O)O)c4cc(O)cc(O)c4-c4cc3ccc4O)C(O)c3ccc(c(Cl)c3)Oc3cc2cc(c3OC2OC(CNCC3CCCCN3)C(O)C(O)C2OC2CC(C)(NCc3ccc(OCc4ccc(Cl)c(Cl)c4)cc3)C(O)C(C)O2)Oc2ccc(cc2Cl)C1O (centres unmarked) [Compound 140] | 4 | 8 | 2 | 0.5 | 3.6 | – | – | – | – | – | – | – | – | – | –
12 | CNC(CC(C)C)C(=O)NC1C(=O)NC(CC(N)=O)C(=O)NC2C(=O)NC3C(=O)NC(C(=O)NC(C(=O)O)c4cc(O)cc(O)c4-c4cc3ccc4O)C(O)c3ccc(c(Cl)c3)Oc3cc2cc(c3OC2OC(CNCc3ccccc3N)C(O)C(O)C2OC2CC(C)(NCc3ccc(OCc4ccc(Cl)c(Cl)c4)cc3)C(O)C(C)O2)Oc2ccc(cc2Cl)C1O (centres unmarked) [Compound 139] | 8 | 4 | 2 | 0.25 | 3.6 | – | – | – | – | – | – | – | – | – | –
13 | CNC(CC(C)C)C(=O)NC1C(=O)NC(CC(N)=O)C(=O)NC2C(=O)NC3C(=O)NC(C(=O)NC(C(=O)O)c4cc(O)cc(O)c4-c4cc3ccc4O)C(O)c3ccc(c(Cl)c3)Oc3cc2cc(c3OC2OC(CNCCc3ccccc3)C(O)C(O)C2OC2CC(C)(NCc3ccc(OCc4ccc(Cl)c(Cl)c4)cc3)C(O)C(C)O2)Oc2ccc(cc2Cl)C1O (centres unmarked) [Compound 143] | 8 | 4 | 2 | 2 | 4.0 | – | – | – | – | – | – | – | – | – | –
14 | CNC(CC(C)C)C(=O)NC1C(=O)NC(CC(N)=O)C(=O)NC2C(=O)NC3C(=O)NC(C(=O)NC(C(=O)O)c4cc(O)cc(O)c4-c4cc3ccc4O)C(O)c3ccc(c(Cl)c3)Oc3cc2cc(c3OC2OC(CN3CCOCC3)C(O)C(O)C2OC2CC(C)(NCc3ccc(OCc4ccc(Cl)c(Cl)c4)cc3)C(O)C(C)O2)Oc2ccc(cc2Cl)C1O (centres unmarked) [Compound 169] | 32 | 32 | 8 | 1 | 18.3 | – | – | – | – | – | – | – | – | – | –

Source: patent US6841661B2, “Glycopeptide antibacterial compounds, compositions containing same and methods of using same” (Princeton Univerisity, priority 1999, dated 2005)
